In PubChem BioAssay (NCI) one finds TGI and GI50 data, which are given here for seven molecules.

Values after ≈ are worked out from the molar mass of the structure shown.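 Briefly, cells in 96-well plates were exposed to five compound concentrations for 48 h, and endpoints were estimated by linear interpolation. GI50 marks 50% less growth. Definition used: TGI = concentration required for complete inhibition of growth.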

Test systems include UO-31 renal; NCI-H23 lung; MCF7 breast; SF-268 CNS; HCT-116 colon; NCI/ADR-RES ovarian; HT29 colon; SK-MEL-28 melanoma; SF-539 CNS; OVCAR-8 ovarian.
Common to all, as to assay: NCI-60 cell line screen, 48 h

For `O=S1(=O)OC(c2ccc(O)cc2)(c2ccc(O)cc2)c2ccccc21`, the TGI in the test on UO-31 renal, in the test on NCI-H23 lung, in the test with MCF7 breast, with SF-268 CNS, with HCT-116 colon and in the test with NCI/ADR-RES ovarian was above 100 µM in each case. Also, the TGI in the test with HT29 colon, in the test on SK-MEL-28 melanoma, in the test with SF-539 CNS and in the test on OVCAR-8 ovarian was above 100 µM throughout.

In the case of `Nc1nc(N)c2c(n1)NC(c1ccccc1)CC(/C=C/c1ccc(Cl)cc1)=N2` (stereo not given), the TGI in the test with UO-31 renal is 23.4 µM; in the test on NCI-H23 lung it was 16.1 µM; with MCF7 breast it was 16 µM; in the test on SF-268 CNS it was 44.1 µM; with HCT-116 colon it was 4.76 µM; with NCI/ADR-RES ovarian, 11.3 µM. The TGI was 15.2 µM in the test on HT29 colon, 28.1 µM in the test on SK-MEL-28 melanoma, 31.2 µM in the test with SF-539 CNS and 37.2 µM in the test with OVCAR-8 ovarian.

Take `COc1ccc(N=c2ssc(C(=S)Nc3ccc(OC)cc3)c2S)cc1`: the TGI with UO-31 renal, with NCI-H23 lung, in the test on MCF7 breast, in the test on SF-268 CNS, with HCT-116 colon and in the test on NCI/ADR-RES ovarian was above 100 µM throughout. The TGI in the test on HT29 colon, with SK-MEL-28 melanoma, in the test with SF-539 CNS and in the test on OVCAR-8 ovarian was above 100 µM throughout.

Turning to `C[C@]12CCC(=O)C=C1CC[C@@H]1[C@@H]2[C@@H](O)C[C@@]2(C)[C@H]1CC[C@]2(O)C(=O)CO`, the TGI with UO-31 renal, in the test with NCI-H23 lung, in the test with MCF7 breast, with SF-268 CNS, in the test with HCT-116 colon and in the test on NCI/ADR-RES ovarian was above 100 µM in each case. Moreover, the TGI with HT29 colon, in the test with SK-MEL-28 melanoma, with SF-539 CNS and with OVCAR-8 ovarian was above 100 µM in each case.

`CC1(C)CC(=O)C2=C(C1)NC(SSC1=C(C#N)C(c3ccc(F)cc3)C3=C(CC(C)(C)CC3=O)N1)=C(C#N)C2c1ccc(F)cc1` (stereo not given): the GI50 with UO-31 renal is 32 µg/mL (≈ 48.9 µM); with NCI-H23 lung it was 31.1 µg/mL (≈ 47.5 µM); with MCF7 breast, 32.3 µg/mL (≈ 49.3 µM); in the test on SF-268 CNS, 29.3 µg/mL (≈ 44.8 µM); with HCT-116 colon, 26.5 µg/mL (≈ 40.5 µM); in the test with NCI/ADR-RES ovarian, 40.9 µg/mL (≈ 62.5 µM). Besides, the GI50 in the test with HT29 colon was 25.1 µg/mL (≈ 38.3 µM); in the test with SK-MEL-28 melanoma it was 25.8 µg/mL (≈ 39.4 µM); in the test on SF-539 CNS it was 23.4 µg/mL (≈ 35.8 µM); in the test with OVCAR-8 ovarian, 28.8 µg/mL (≈ 44 µM). Besides, the TGI with UO-31 renal stood at 74.9 µg/mL; in the test on NCI-H23 lung, 68.2 µg/mL; with MCF7 breast it was 72.3 µg/mL; in the test with SF-268 CNS, 58.4 µg/mL; in the test with HCT-116 colon, 47.3 µg/mL; with NCI/ADR-RES ovarian, 128 µg/mL. In addition, the TGI was found to be 47.2 µg/mL in the test with HT29 colon, 46.4 µg/mL in the test with SK-MEL-28 melanoma, 43.5 µg/mL in the test with SF-539 CNS and 49.9 µg/mL in the test on OVCAR-8 ovarian.

As for `COc1c2c(cc3c1C(O)N1CC[C@]34[C@H]3O[C@H]3[C@H](OC)C[C@@H]14)OCO2` (stereo not given in full), the TGI in the test on UO-31 renal, in the test with NCI-H23 lung, in the test with MCF7 breast, in the test on SF-268 CNS, in the test on HCT-116 colon and with NCI/ADR-RES ovarian was above 100 µM in each case. In addition, the TGI in the test with HT29 colon, with SK-MEL-28 melanoma, in the test on SF-539 CNS and in the test on OVCAR-8 ovarian was above 100 µM throughout.

Turning to `CN(CCCNC(=O)c1cn(C)c2c1ccc1cc(Cl)c(Cl)cc12)CCCNC(=O)c1cn(C)c2c1ccc1cc(Cl)c(Cl)cc12`, the TGI in the test on UO-31 renal is 39.6 µM; in the test with NCI-H23 lung, 31.4 µM; in the test on MCF7 breast, 19.6 µM; in the test on SF-268 CNS, 34 µM; with HCT-116 colon, 31.2 µM; in the test with NCI/ADR-RES ovarian, 33.1 µM. Besides, the TGI in the test with HT29 colon was found to be 29.4 µM; with SK-MEL-28 melanoma it was 42 µM; with SF-539 CNS, 32.1 µM; with OVCAR-8 ovarian, 31.2 µM.
